The results in this text go back to patent US7390910B2, “Compounds for treating tumors” (priority 2003, dated 2008).

Where “and” joins values, the source holds several entries; their conditions need not be identical. Equal entries are not always repeated.

For assay [1], the system named is LOX. The assay can be described thus: Cell survival assay (SRB), LOX. To be noted: LOX cells. It counts as cell-based, human. The procedure:
(§1) Cell Survival Assay: Standard Pharmacological Test Procedure. […] Compounds are incubated with cells for 3 days.

The subject of assay [2] is HCT-15. The assay can be described thus: Cell survival assay (SRB), HCT-15. The assay is classed as cell-based. To be noted: HCT-15 cells. The procedure: as §1
Assay [3] concerns NCl-H1299. The assay can be described thus: Cell survival assay (SRB), NCl-H1299. It counts as cell-based. The note with it: NCl-H1299 cells. The procedure: as §1
In assay [4] the test system is KBV1. The assay can be described thus: cells. The assay is classed as cell-based. To be noted: for IC50: 3 days, SRB. As to the method:
as §1

In assay [5] the test system is KB85. The experiment in a line: cells. To be noted: 3 days, SRB. It counts as cell-based. The procedure: as §1
The test system of assay [6] is KB cells. The experiment in a line: cells. The assay is classed as cell-based. To be noted: 3 days, SRB. As to the method:
as §1

Assay [7] relates to bovine microtubule-associated protein (MAP)-rich tubulin. It counts as biochemical. The note with it: 0.3 uM. The procedure, abridged:
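This in vitro polymerization assay used bovine tubulin rich in microtubule-associated proteins, prepared at 1.5 mg/ml in GPEM (PEM buffer containing 1 mM GTP) and cleared by a 12,000×g spin. Tubulin solution (100 μl/well) was dispensed onto duplicate 10 μl test samples. Control wells held 0.3% DMSO. A SpectraMax Plus reader recorded turbidity at 340 nm every minute over 60 min at 24° C.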

The subject of assay [8] is A375. The assay can be described thus: Cell survival assay (SRB), A375. To be noted: A375 cells. The assay is classed as cell-based. As to the method:
as §1

Assay [9] concerns Human Melanoma Carcinoma Lox. The experiment in a line: Growth of tumors in nude mice (LOX xenograft). The assay is classed as in vivo, athymic nu/nu female mice. The text has this: Growth of Tumors in Nude Mice. […] A p-value ≦0.05 indicates a statistically significant reduction in relative tumor growth of treated group compared to that of the vehicle control group.
Assay [10] concerns Colo205. The experiment in a line: Cell survival assay (SRB), Colo205. It counts as cell-based. The note with it: Homo sapiens, COLO 205, 72 h, Colo205 cells, 3 days. As to the method: as §1
Assay [11] relates to S1. The assay can be described thus: Cell survival assay (SRB), S1. The note with it: S1 cells. The assay is classed as cell-based. The procedure:
as §1

For assay [12], the system named is S1-M1. The experiment in a line: Cell survival assay (SRB), S1-M1. The assay is classed as cell-based. The note with it: S1-M1 cells. As to the method: as §1
Assay [13] relates to KM20. The assay can be described thus: Cell survival assay (SRB), KM20. It counts as cell-based. The note with it: KM20 cells. As to the method: as §1

By IC50 is commonly meant the midpoint of a concentration-inhibition curve. Read a high IC50 as lower potency. Take “(2E,4S)-2,5-dimethyl-4-(methyl{3-methyl-N-[(2S)-3-methyl-2-(methylamino)-3-phenylbutyl]-L-valyl}amino)-2-hexenoic acid [Example 87]”: the IC50 in [1] was 151 nM; in assay [2], 759 nM; in assay [3], 295 nM; in assay [5], 312 nM; in assay [6], 104 nM. For the same compound, the “KBV1 % inhibition @ 3000 nM” value in [4] was 14%(2). For the same compound, the “Tubulin Polym. % inhibition at 0.3 uM” value in assay [7] was 28%.
`CN[C@H](C(=O)N[C@H](C(=O)N(C)[C@H](/C=C(\C)C(=O)NN)C(C)C)C(C)(C)C)C(C)(C)c1ccccc1` [Example 109, (2S)-N-[(1S,2E)-4-hydrazino-1-isopropyl-3-methyl-4-oxo-2-butenyl]-N,3,3-trimethyl -{[(2S)-3-methyl-2-(methylamino)-3-phenylbutanoyl]amino}butanamide]: the 50% inhibitory concentration (IC50) was determined as 19 nM in assay [8], 2080 nM in assay [4], 227 nM in assay [5] and 65 nM in assay [6]. For the same compound, the “% T/C on day 7” value in [9] (3 mg/kg IV on days 1, 5, 9) worked out at 24%. For the same compound, the “% T/C on day 13” value in assay [9] (3 mg/kg IV on days 1, 5, 9, day 13) is 8%. In addition, the “KBV1 % inhibition @ 3000 nM” value in assay [4] is listed as 23%.
On to `CN[C@H](C(=O)N[C@H](C(=O)N(C)[C@H](/C=C(\C)C(=O)N1CCOCC1)C(C)C)C(C)(C)C)C(C)(C)c1ccccc1` [Example 27, (2S)-N-[(1S,2E)-1-isopropyl-3-methyl-4-(4-morpholinyl)-4-oxo-2-butenyl]-N,3,3-trimethyl-2-{[(2S)-3-methyl-2-(methylamino)-3-phenylbutanoyl]amino}butanamide], for which the IC50 in assay [1] (Homo sapiens) is 50 nM; in assay [10], 23 nM; in [2] (Homo sapiens), 26 nM; in assay [3], 38 nM; in assay [11], 657 nM; in assay [4] (Homo sapiens, KB-V1, 72 h), 1300 nM. The IC50 in assay [5] (72 h) was 73.5 nM; in assay [6] (Homo sapiens, KB, 72 h), 43.5 nM; in assay [12], 336 nM. Also, in [9] (10 mg/kg IV on days 1, 5, 9), the “% T/C on day 7” value was 13% and 11%. Also, the “% T/C on day 12” value in assay [9] (10 mg/kg IV on days 1, 5, 9, day 12) worked out at 2%. In addition, in [9] (10 mg/kg IV on days 1, 5, 9), the “% T/C on day 14” value turned out to be 2%. Further, the “Tubulin Polym. % inhibition at 0.3 uM” value in [7] was 69%.
For `CN[C@H](C(=O)N[C@H](C(=O)N(C)[C@H](/C=C(\C)C(=O)N1CCC[C@H]1C(=O)OC)C(C)C)C(C)(C)C)C(C)(C)c1ccccc1` [Example 35, N,β,β-trimethyl-L-phenylalanyl-N^1-{(1S,2E)-4-[(2S)-2-(methoxycarbonyl)pyrrolidin-1-yl]-1-isopropyl-3-methyl-4-oxobut-2-enyl}-N^1,3-dimethyl-L-valinamide], the IC50 in [11] stood at 9 nM; in assay [4] (Homo sapiens, KB-V1, 72 h) it was 291 nM; in assay [5] (72 h) it was 7.3 nM; in assay [6] (Homo sapiens, KB, 72 h) it was 1.5 nM; in [12], 11 nM. In addition, in [9] (2 mg/kg IV on days 1, 5, 9), the “% T/C on day 7” value came out at 5%. Further, the “% T/C on day 14” value in assay [9] (2 mg/kg IV on days 1, 5, 9) amounted to 1%. The “Tubulin Polym. % inhibition at 0.3 uM” value in assay [7] is listed as 82%.
Usually inhibition stands for how much of the control response was suppressed. A high value points to strong suppression. Consider `C/C(=C\[C@H](C(C)C)N(C)C(=O)[C@@H](NC(=O)[C@@H](C)C(C)(C)c1ccccc1)C(C)(C)C)C(=O)O` [Example 92, (E,4S)-4-[((2S)-2-{[(2S)-2,3-dimethyl-3-phenylbutanoyl]amino}-3,3-dimethylbutanoyl)(methyl)amino]-2,5-dimethyl-2-hexenoic acid], for which the IC50 in assay [1] (Homo sapiens) stood at 1070 nM; in [2] (Homo sapiens) it was 1380 nM; in [3], 1200 nM; in assay [5] (72 h) it was 990 nM; in assay [6] (Homo sapiens, KB, 72 h), 861 nM. In assay [4] (Homo sapiens, KB-V1, 3000 nM), this compound yielded an inhibition at 3 µM of 30%. In addition, the “Tubulin Polym. % inhibition at 0.3 uM” value in assay [7] is reported as 94%.
`CN[C@H](C(=O)N[C@H](C(=O)N(C)[C@H](/C=C(\C)C=O)C(C)C)C(C)(C)C)C(C)(C)c1ccccc1` [Example 82, N,β,β-trimethyl-L-phenylalanyl-N^1-[(1S,2E)-1-isopropyl-3-methyl-4-oxo-2-butenyl]-N^1,3-dimethyl-L-valinamide]: the IC50 in [1] (Homo sapiens) was 630 nM; in assay [10], 5.1 nM; in assay [2] (Homo sapiens) it was 1500 nM; in [3] it was 1570 nM; in assay [8] (Homo sapiens, A-375), 663 nM; in [4], more than 3000 nM. For the same compound, the IC50 in assay [4] (Homo sapiens, KB-V1, 72 h) came to 1940 nM; in [5] (72 h), 1330 nM; in assay [6] (Homo sapiens, KB, 72 h) it was 713 nM; in assay [13] it was 4.6 nM. Besides, the “Tubulin Polym. % inhibition at 0.3 uM” value in assay [7] is 51% and 47%.
Take `CN[C@H](C(=O)N[C@H](C(=O)N(C)[C@H](/C=C(\C)C(C)=O)C(C)C)C(C)(C)C)C(C)(C)c1ccccc1` [Example 84, N,β,β-trimethyl-L-phenylalanyl-N^1-[(1S,2E)-1-isopropyl-3-methyl-4-oxo-2-pentenyl]-N^1,3-dimethyl-L-valinamide]: the IC50 in assay [1] (Homo sapiens) is 550 nM; in assay [10], 180 nM; in assay [2] (Homo sapiens) it was 1260 nM; in assay [3] it was 832 nM; in assay [4] (Homo sapiens, KB-V1, 72 h) it was 2360 nM; in [5] (72 h), 664 nM. The same compound registered an IC50 in [6] (Homo sapiens, KB, 72 h) of 403 nM. Further, in assay [7], the “Tubulin Polym. % inhibition at 0.3 uM” value is 69%.
